These results are taken from patent US4699904A, “Tetrazolyl derivatives of β-lactams useful as elastase inhibitors” (Merck & Co., Inc., priority 1985, dated 1987).

One assay addresses T1, Human Polymorphonuclear Leukocyte Elastase (Homo sapiens, UniProt P08246).
T1 construct: Crude extract of human polymorphonuclear leukocytes (PMN) containing elastase activity; from tissue; host or cells: human polymorphonuclear leukocytes (crude extract)
T1 sequence (P08246 30-247 limits assumed): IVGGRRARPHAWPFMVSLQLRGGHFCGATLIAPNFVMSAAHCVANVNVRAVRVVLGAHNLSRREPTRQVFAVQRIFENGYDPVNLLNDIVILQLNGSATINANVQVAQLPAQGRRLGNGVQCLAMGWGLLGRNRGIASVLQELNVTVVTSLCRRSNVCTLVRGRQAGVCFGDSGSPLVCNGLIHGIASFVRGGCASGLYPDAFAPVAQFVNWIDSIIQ
Description: Inhibition of human polymorphonuclear leukocyte elastase via hydrolysis of N-t-Boc-alanyl-alanyl-prolylalanine-p-nitroanilide. Format: biochemical. To be noted: Table I; crude PMN extract, Boc-AAPAN substrate, pH 7.5; 50% inhibition 2 minutes after zero time. The method, then:
Protocol Enzyme Assays for the Inhibition of Human Polymorphonuclear Leukocyte Elastase Via Hydrolysis of N-t-Boc-alanyl-alanyl-prolylalanine-p-nitroanilide Reagents:
0.05M TES (N-tris[hydroxymethyl]methyl-2-amino-ethanesulfonic acid) Buffer, pH 7.5.
0.2 mM N-t-Boc-alanyl-alanyl-prolyl-alanine-p-nitroanilide (Boc-AAPAN).
To prepare substrate, the solid (m.w. 550) was first dissolved in 10.0 ml DMSO. Buffer at pH 7.5 was then added to a final volume of 100 ml.
Crude extract of human polymorphonuclear leukocytes (PMN) containing elastase activity.
Inhibitors (cephalosporin sulfone esters) to be tested dissolved in DMSO just before use.
To 1.0 ml of 0.2 mM Boc-AAPAN in a cuvette, 0.01-0.1 ml of DMSO with or without inhibitor was added. After mixing, a measurement was taken at 410 mμ to detect any spontaneous hydrolysis due to presence of test compound. 0.05 Milliliters of PMN extract was then added and the ΔOD/min at 410 mμ was measured and recorded. Beckman model 35 spectrophotometer was used.
Results were reported as ED50, i.e., effective dosage in micrograms per milliliter (μg/ml) for 50% inhibition of the enzyme activity 2 minutes after zero time.
The elastase activity in the crude PMN extract may vary from one preparation to another. A control of each new batch is run, and the volume added in the assay procedure is adjusted according to activity.
As usually defined, the IC50 is the concentration at which inhibition is half-maximal. High values mean a need for much substance, low ones inhibition by little substance. In turn, `CO[C@H]1C(=O)N2C(c3nnn[nH]3)=C(COC(=O)N(C)C)CS(=O)(=O)[C@H]12` [R^1=OCH3, A=(CH3)2NCOO, R=H, Q^1=H] had an IC50 of 5.37 µM.

In turn, `COc1ccc(Cn2nnnc2C2=C(COC(=O)N(C)C)CS(=O)(=O)[C@@H]3[C@@H](OC)C(=O)N23)cc1` [R^1=OCH3, A=(CH3)2NCOO, R=PMB, Q^1=H] gave a half-maximal inhibitory concentration (IC50) of 1.42 µM.

`CO[C@H]1C(=O)N2C(c3nnn[nH]3)=C(COC(=O)NCc3ccccc3)CS(=O)(=O)[C@H]12` [R^1=OCH3, A=.phi.CH2NHCOO, R=H, Q^1=H, 3-(N-Benzyl-carbamoyloxy-methyl)-7α-methoxy-4-(1H-tetrazol-5-yl)-3-cephem-1,1-dioxide]: the IC50 was 9.21 µM. Still for that read-out and setting: then `COc1ccc(Cn2nnnc2C2=C(COC(=O)NCc3ccccc3)CS(=O)(=O)[C@@H]3[C@@H](OC)C(=O)N23)cc1` [R^1=OCH3, A=.phi.CH2NHCOO, R=PMB, Q^1=H, 3-(N-benzyl-carbamoyloxy-methyl)-7α-methoxy-4-(1-p-methoxybenzyl-tetrazol-5-yl)-3-cephem-1,1-dioxide], with 0.541 µM; and `CO[C@H]1C(=O)N2C(c3nnn[nH]3)=C(COC(C)=O)CS(=O)(=O)[C@H]12` [R^1=OCH3, A=CH3COO, R=H, Q^1=H, 3-Acetoxymethyl-7α-methoxy-4-(tetrazol-5-yl)-3-cephem-1,1-dioxide], with 58.3 µM; and `COc1ccc(Cn2nnnc2C2=C(COC(C)=O)CS(=O)(=O)[C@@H]3[C@@H](OC)C(=O)N23)cc1` [R^1=OCH3, A=CH3COO, R=PMB, Q^1=H, 3-acetoxymethyl-7α-methoxy-4-[1-(p-methoxybenzyl)tetrazol-5-yl]-3-cephem-1,1-dioxide], with 1.73 µM.

Staying with this assay, now noted: Table II; crude PMN extract, Boc-AAPAN substrate, pH 7.5; 50% inhibition 2 minutes after zero time.
`CO[C@H]1C(=O)N2C(c3nnn(Cc4ccccc4C(=O)O)n3)=C(COC(C)=O)CS(=O)(=O)[C@H]12` gave an IC50 of 0.628 µM. On to `CO[C@H]1C(=O)N2C(c3nnn(Cc4ccccc4C(=O)OC(C)(C)C)n3)=C(COC(C)=O)CS(=O)(=O)[C@H]12`, for which 0.562 µM corresponded to half-maximal inhibition (IC50). Turning to `CO[C@H]1C(=O)N2C(c3nnn(Cc4ccc(C(=O)O)cc4)n3)=C(COC(C)=O)CS(=O)(=O)[C@H]12` [3-acetoxymethyl-7α-methoxy-4-[2-(-hydroxycarbonylbenzyl)tetrazol-5-yl]-3-cephem-1,1-dioxide], the IC50 was 0.419 µM. The same measure, in the same setting: the figure for `CO[C@H]1C(=O)N2C(c3nnn(Cc4ccc(C(=O)OC(C)(C)C)cc4)n3)=C(COC(C)=O)CS(=O)(=O)[C@H]12` [3-acetoxymethyl-7α-methoxy-4-[2-(p-t-butoxycarbonylbenzyl)tetrazol-5-yl]-3-cephem-1,1-dioxide] is 0.075 µM; for `CO[C@H]1C(=O)N2C(c3nnn(CC(=O)O)n3)=C(COC(C)=O)CS(=O)(=O)[C@H]12` [Table II: A=CH3COO, R=CH2COOH, Q^1=H] it is 7.47 µM; for `CO[C@H]1C(=O)N2C(c3nnn(C)n3)=C(COC(C)=O)CS(=O)(=O)[C@H]12` [Table II: A=CH3COO, R=CH3, Q^1=H] it is 0.56 µM.

The same assay, now with this note: Table III, lower part; crude PMN extract, Boc-AAPAN substrate, pH 7.5; 2 minutes after zero time.
For `COc1ccc(Cn2nnnc2C2N3C(=O)C(NC(=O)C(F)(F)F)C3SC2(C)C)cc1` (centres unmarked) [drawing 32, n=0], the IC50 was 21.9 µM.

With `COc1ccc(Cn2nnnc2C2N3C(=O)C(NC(=O)C(F)(F)F)C3S(=O)(=O)C2(C)C)cc1` (centres unmarked) [drawing 32, n=2], half-maximal inhibition (IC50) was put at 0.409 µM.

Still in this assay, the particulars now being: Table III, upper part; crude PMN extract, Boc-AAPAN substrate, pH 7.5; 2 minutes after zero time.
With `COc1ccc(Cn2nnnc2[C@@H]2N3C(=O)[C@@H](NC(=O)C(F)(F)F)C3SC2(C)C)cc1` (some centres unmarked) [drawing 31, n=0], the IC50 is 4.38 µM. Same read-out and setting: then `COc1ccc(Cn2nnnc2[C@@H]2N3C(=O)[C@@H](NC(=O)C(F)(F)F)C3[S+]([O-])C2(C)C)cc1` (some centres unmarked) [drawing 31, n=1], with 4.23 µM; and `COc1ccc(Cn2nnnc2[C@@H]2N3C(=O)[C@@H](NC(=O)C(F)(F)F)C3S(=O)(=O)C2(C)C)cc1` (some centres unmarked) [drawing 31, n=2], with 1.02 µM.
